As usually defined, the Ki is a measure of affinity in units of concentration, obtained from inhibition or displacement.

Each structure is given as a SMILES string.

Experiment [1] deals with hippocampal neurons derived from LRRK2 BAC transgenic mice. To be noted: dose-dependent manner.
In experiment [2] the target is LRRK2 (Homo sapiens, UniProt Q5S007). As to the kind of experiment: biochemical.
LRRK2, sequence (Q5S007 whole entry): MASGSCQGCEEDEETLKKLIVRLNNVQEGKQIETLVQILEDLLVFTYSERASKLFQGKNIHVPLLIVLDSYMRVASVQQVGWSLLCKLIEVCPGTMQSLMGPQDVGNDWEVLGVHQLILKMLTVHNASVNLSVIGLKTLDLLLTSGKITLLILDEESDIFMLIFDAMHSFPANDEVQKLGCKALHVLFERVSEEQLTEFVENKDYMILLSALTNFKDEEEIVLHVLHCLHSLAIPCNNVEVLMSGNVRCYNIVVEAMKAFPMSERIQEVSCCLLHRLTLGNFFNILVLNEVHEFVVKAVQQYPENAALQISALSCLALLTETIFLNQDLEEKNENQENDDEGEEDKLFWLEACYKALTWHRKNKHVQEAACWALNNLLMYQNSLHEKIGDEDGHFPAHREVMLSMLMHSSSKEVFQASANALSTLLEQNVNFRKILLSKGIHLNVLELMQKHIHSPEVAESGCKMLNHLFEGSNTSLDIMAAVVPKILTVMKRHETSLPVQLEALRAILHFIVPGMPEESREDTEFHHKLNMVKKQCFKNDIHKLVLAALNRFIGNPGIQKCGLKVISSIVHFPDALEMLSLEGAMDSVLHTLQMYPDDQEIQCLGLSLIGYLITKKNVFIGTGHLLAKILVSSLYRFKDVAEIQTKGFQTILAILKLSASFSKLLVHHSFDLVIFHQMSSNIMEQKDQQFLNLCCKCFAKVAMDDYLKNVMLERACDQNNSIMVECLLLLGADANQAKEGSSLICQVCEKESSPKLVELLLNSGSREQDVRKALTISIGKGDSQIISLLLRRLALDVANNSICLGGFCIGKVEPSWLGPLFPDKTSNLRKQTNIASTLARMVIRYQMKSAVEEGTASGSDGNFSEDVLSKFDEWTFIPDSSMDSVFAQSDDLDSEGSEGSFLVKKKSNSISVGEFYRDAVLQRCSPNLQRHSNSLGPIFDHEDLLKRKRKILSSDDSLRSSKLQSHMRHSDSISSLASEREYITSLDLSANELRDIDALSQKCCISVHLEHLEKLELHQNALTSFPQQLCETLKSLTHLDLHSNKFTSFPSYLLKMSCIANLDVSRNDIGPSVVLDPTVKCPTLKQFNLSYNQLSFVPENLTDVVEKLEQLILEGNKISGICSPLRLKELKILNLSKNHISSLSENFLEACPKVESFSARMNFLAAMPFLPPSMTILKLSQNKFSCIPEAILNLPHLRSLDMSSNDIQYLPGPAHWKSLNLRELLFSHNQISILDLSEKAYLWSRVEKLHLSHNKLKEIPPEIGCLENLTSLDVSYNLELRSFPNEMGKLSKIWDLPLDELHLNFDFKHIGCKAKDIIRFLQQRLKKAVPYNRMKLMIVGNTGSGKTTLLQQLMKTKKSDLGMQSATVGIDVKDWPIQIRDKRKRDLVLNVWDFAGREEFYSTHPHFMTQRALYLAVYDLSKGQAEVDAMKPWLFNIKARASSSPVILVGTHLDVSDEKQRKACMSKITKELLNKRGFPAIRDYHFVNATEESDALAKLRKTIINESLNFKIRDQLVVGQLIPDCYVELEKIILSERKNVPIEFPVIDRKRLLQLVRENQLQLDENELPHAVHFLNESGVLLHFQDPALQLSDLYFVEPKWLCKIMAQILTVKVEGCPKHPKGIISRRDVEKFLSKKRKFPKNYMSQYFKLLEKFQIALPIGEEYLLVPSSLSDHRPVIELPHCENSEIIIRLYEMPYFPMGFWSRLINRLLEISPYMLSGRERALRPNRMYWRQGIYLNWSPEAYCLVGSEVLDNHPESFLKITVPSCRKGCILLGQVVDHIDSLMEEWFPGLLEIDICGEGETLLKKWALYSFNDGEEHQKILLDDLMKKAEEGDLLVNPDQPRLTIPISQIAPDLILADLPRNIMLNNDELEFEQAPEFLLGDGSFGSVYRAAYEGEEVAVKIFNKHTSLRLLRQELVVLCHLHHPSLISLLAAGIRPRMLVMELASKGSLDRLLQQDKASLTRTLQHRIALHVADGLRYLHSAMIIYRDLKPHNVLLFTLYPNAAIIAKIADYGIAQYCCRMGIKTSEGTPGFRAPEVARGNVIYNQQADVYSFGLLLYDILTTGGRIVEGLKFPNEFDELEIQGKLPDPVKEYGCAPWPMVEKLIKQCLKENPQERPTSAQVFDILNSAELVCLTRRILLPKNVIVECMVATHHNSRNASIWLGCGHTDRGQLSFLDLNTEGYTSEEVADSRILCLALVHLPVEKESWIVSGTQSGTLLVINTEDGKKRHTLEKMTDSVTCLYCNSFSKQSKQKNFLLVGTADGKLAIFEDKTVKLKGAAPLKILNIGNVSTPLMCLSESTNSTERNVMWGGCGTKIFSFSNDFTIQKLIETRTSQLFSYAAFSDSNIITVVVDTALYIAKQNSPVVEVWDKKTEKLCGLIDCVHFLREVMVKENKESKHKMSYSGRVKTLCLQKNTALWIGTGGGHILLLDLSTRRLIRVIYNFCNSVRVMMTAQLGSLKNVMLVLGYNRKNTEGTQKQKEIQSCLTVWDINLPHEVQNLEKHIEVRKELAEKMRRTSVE

For the compound `CNc1nc(Nc2ccc(C(=O)N3CCOCC3)cc2OC)ncc1C(F)(F)F` [G1023, [3-methoxy-4-(4-methylamino-5-trifluoromethyl-pyrimidin-2-ylamino)-phenyl]-morpholin-4-yl-methanone], the “neurite outgrowth defect (total neurite length)” value in experiment [1] is reported as “reversed neurite outgrowth defect”. In experiment [2], the Ki was approximately 4 nM.

Values taken from patent US20140228384A1, “ASSAYS AND BIOMARKERS FOR LRRK2” (Genentech, Inc., priority 2011, published 2014).
